The values that follow come from ChEMBL document CHEMBL1629463, “In vitro anti-rotavirus activity of polyphenol compounds isolated from the roots of Glycyrrhiza uralensis” (Bioorg Med Chem, 2010).

The subject of data set [1] is Porcine rotavirus. In words: Antiviral activity against KJ56-1 Porcine rotavirus G5P[7] in human RBC assessed as inhibition of virus-induced hemagglutinination after 1 hr. The format is functional.
Data set [2] relates to Bovine rotavirus. In words: Antiviral activity against KJ56-1 Bovine rotavirus G8P[7] infected in african green monkey TF-104 cells assessed as inhibition of viral mRNA synthesis at 40 to 50 uM after 18 hrs by RT-PCR analysis. It is filed as functional, cell-based.
A short description of data set [3]: Selectivity index, ratio of CC50 for african green monkey TF-104 cells to EC50 for cytopathic inhibition activity against KJ56-1 Bovine rotavirus G8P[7]. It is filed as toxicity, cell-based. The settings on record: read-out: Ratio CC50/EC50.
Data set [4] in a line: Cytotoxicity against african green monkey TF-104 cells after 72 hrs by MTT assay. It is filed as cell-based. The settings on record: chlorocebus aethiops.
The subject of data set [5] is Bovine rotavirus. In words: Antiviral activity against KJ56-1 Bovine rotavirus G8P[7] infected in african green monkey TF-104 cells assessed as inhibition of virus-induced cytopathic effect after 72 hrs. It is filed as functional, cell-based. The conditions noted are these: Rotavirus A, TF-104, 72 h.
The test system of data set [6] is Porcine rotavirus. In words: Antiviral activity against KJ56-1 Porcine rotavirus G5P[7] infected in african green monkey TF-104 cells assessed as inhibition of viral mRNA synthesis at 40 to 50 uM after 18 hrs by RT-PCR analysis. It is filed as functional, cell-based.
In data set [7] the test system is Bovine rotavirus. In words: Antiviral activity against KJ56-1 Bovine rotavirus G8P[7] in human RBC assessed as inhibition of virus-induced hemagglutinination after 1 hr. The conditions noted are these: Rotavirus A. The format is functional.
A short description of data set [8]: Selectivity index, ratio of CC50 for african green monkey TF-104 cells to EC50 for cytopathic inhibition activity against KJ56-1 Povine rotavirus […]. The conditions noted are these: read-out: Ratio CC50/EC50. It is filed as toxicity, cell-based. A general note: Cytopathic effects are the visible damage that an infection or toxin causes in cultured cells.
For data set [9], the system named is Porcine rotavirus. In words: Antiviral activity against KJ56-1 Porcine rotavirus G5P[7] infected in african green monkey TF-104 cells assessed as inhibition of virus-induced cytopathic effect after 72 hrs. It is filed as functional, cell-based. The conditions noted are these: TF-104, 72 h.
The test system of data set [10] is Porcine rotavirus. In words: Antiviral activity against KJ56-1 Porcine rotavirus G5P[7] infected in african green monkey TF-104 cells after 72 hrs by virucidal assay. The format is functional, cell-based. The settings on record: Rotavirus A, TF-104, 72 h.
Data set [11] relates to Porcine rotavirus. In words: Antiviral activity against KJ56-1 Porcine rotavirus G5P[7] infected in african green monkey TF-104 cells assessed as inhibition of viral replication at 30 uM after 24 hrs by immunofluorescence assay. It is filed as functional, cell-based.
A short description of data set [12]: Selectivity index, ratio of CC50 for african green monkey TF-104 cells to EC50 for KJ56-1 Bovine rotavirus G8P[7] by virucidal assay. It is filed as toxicity, cell-based. The conditions noted are these: read-out: Ratio CC50/EC50.
A short description of data set [13]: Selectivity index, ratio of CC50 for african green monkey TF-104 cells to EC50 for virucidal activity against KJ56-1 Povine rotavirus […]. The conditions noted are these: read-out: Ratio CC50/EC50. The format is toxicity, cell-based.
The test system of data set [14] is Bovine rotavirus. In words: Antiviral activity against KJ56-1 Bovine rotavirus G8P[7] infected in african green monkey TF-104 cells after 72 hrs by virucidal assay. It is filed as functional, cell-based. The conditions noted are these: Rotavirus A, TF-104, 72 h.
The subject of data set [15] is Bovine rotavirus. In words: Antiviral activity against KJ56-1 Bovine rotavirus G8P[7] infected in african green monkey TF-104 cells assessed as inhibition of viral replication at 30 uM after 24 hrs by immunofluorescence assay. It is filed as functional, cell-based.

Converted amounts (≈) assume the structure as drawn. The source made the active and inactive calls. The calls are words filed in the database; no cut-off is given here.

What is called CC50 is the concentration that lowers cell viability or growth by half. One may read the EC50 as the concentration needed to bring the measured effect to its halfway point. Take `COc1cc(O)ccc1C(=O)/C=C/c1ccc(O)cc1`: the MIC entry with Porcine rotavirus [1] was “inactive”. The inhibition result in the data set on Bovine rotavirus [2] and in the data set on Porcine rotavirus [6] was “Active” throughout. Also, the selectivity ratio is more than 3.2 in data set [3] and 5.6 in [8]. Moreover, the CC50 at 72 h in data set [4] was more than 133 µM. Besides, the EC50 with Bovine rotavirus [5] came out at 41.8 µM; in the data set on Porcine rotavirus [9] it was 24 µM; in the data set on Porcine rotavirus [10], 69.5 µM. In addition, in the data set with Bovine rotavirus [7], the MIC came to 17.2 µM (≈ 4.65 µg/mL).
As to `O=c1c(-c2ccc(O)cc2)coc2cc(O)cc(O)c12` [GENISTEIN], the selectivity ratio in data set [3] was 1.8. Moreover, the CC50 at 72 h in data set [4] was determined as 174 µM. Besides, the concentration giving a half-maximal response (EC50) in the data set with Bovine rotavirus [5] came out at 99.6 µM.
With `COc1c(CC=C(C)C)c(O)cc2c1C[C@H](c1ccc(O)cc1O)CO2` [GLYASPERIN C], the MIC in the data set with Porcine rotavirus [1] and in the data set with Bovine rotavirus [7] was 17.2 µM (≈ 6.13 µg/mL) in each case. Also, the inhibition entry in the data set on Porcine rotavirus [11], with Bovine rotavirus [2], in the data set on Porcine rotavirus [6] and in the data set on Bovine rotavirus [15] was “Active” in each case. In addition, the selectivity ratio in [3] came out at 3.6; in [12], 2.9; in data set [13], 2.3; in data set [8] it was 3.6. In data set [4], this molecule came in with a CC50 at 72 h of 42.8 µM. In addition, the half-maximal effective concentration (EC50) with Bovine rotavirus [5] came out at 12 µM; in the data set on Bovine rotavirus [14], 14.7 µM; with Porcine rotavirus [9] it was 12.1 µM; in the data set with Porcine rotavirus [10], 18.7 µM.
Turning to `COc1cc2c(c(OC)c1CC=C(C)C)C[C@H](c1ccc(O)cc1O)CO2` [GLYASPERIN D], the MIC with Porcine rotavirus [1] and in the data set on Bovine rotavirus [7] was 17.2 µM (≈ 6.37 µg/mL) each time. Besides, the inhibition result in the data set on Porcine rotavirus [11] was “inactive”. The inhibition entry in the data set on Bovine rotavirus [2], in the data set with Porcine rotavirus [6] and in the data set with Bovine rotavirus [15] was “Active” each time. Also, the results for the selectivity ratio in [3] and in data set [12] were 1.6 and 5.7, respectively. The molecule also returned a CC50 at 72 h in [4] of 68.1 µM. Also, the EC50 was found to be 42 µM in the data set with Bovine rotavirus [5] and 17.6 µM in the data set on Bovine rotavirus [14].
As for `COc1cc2oc(=O)c(-c3ccc(O)cc3O)cc2c(OC)c1CC=C(C)C` [GLYCYRIN], the MIC in the data set with Porcine rotavirus [1] and with Bovine rotavirus [7] was 17.2 µM (≈ 6.58 µg/mL) throughout. In addition, the CC50 at 72 h in [4] was more than 133 µM. In addition, the values for the EC50 in the data set with Bovine rotavirus [5] and with Bovine rotavirus [14] were more than 100 µM and 88.1 µM, respectively. In addition, the selectivity ratio in data set [12] was more than 1.5.
For `COc1c(CC=C(C)C)c(O)cc2oc(-c3ccc(O)cc3O)cc12` [LICOCOUMARONE], the MIC in the data set with Porcine rotavirus [1] and in the data set on Bovine rotavirus [7] was 17.2 µM (≈ 5.85 µg/mL) throughout. For the same molecule, the inhibition result with Bovine rotavirus [2] and with Porcine rotavirus [6] was “Active” throughout. The selectivity ratio is 2.5 in data set [3], 1.4 in data set [12], 2.1 in [13] and 1.3 in [8]. In [4], this molecule gave a CC50 at 72 h of 54.5 µM. The EC50 with Bovine rotavirus [5] came to 22.3 µM; in the data set with Bovine rotavirus [14], 37.8 µM; with Porcine rotavirus [9] it was 43.6 µM; in the data set on Porcine rotavirus [10], 26.1 µM.
Regarding `CC(C)=CCc1c(O)cc2oc(-c3ccc(O)cc3)c(O)c(=O)c2c1O` [LICOFLAVONOL], the MIC with Porcine rotavirus [1] and in the data set with Bovine rotavirus [7] was 17.2 µM (≈ 6.09 µg/mL) throughout. For the same molecule, in the data set on Porcine rotavirus [11], the inhibition entry is “inactive”. Besides, the inhibition result in the data set on Bovine rotavirus [2], in the data set on Porcine rotavirus [6] and in the data set on Bovine rotavirus [15] was “Active” in each case. The selectivity ratio in [3] came to 3.3; in [12] it was 5.5; in [13], 2.3. Further, the CC50 at 72 h in data set [4] worked out at 85.3 µM. Besides, the figures for the half-maximal effective concentration (EC50) in the data set on Bovine rotavirus [5], in the data set on Bovine rotavirus [14] and in the data set with Porcine rotavirus [10] were 25.9 µM, 15.5 µM and 36.8 µM, respectively.
